In patent US20180318287A1, “Imidazo[4,5-c]quinolin-2-one Compounds and Their Use in Treating Cancer” (ASTRAZENECA AB, priority 2015, published 2018):
Like-named read-outs stand apart in the source and are kept apart here.

What was measured:
Format in all cases: cell-based
ATM kinase = biological target: T1, ATM kinase (Homo sapiens, UniProt Q13315); experiment: Assay a): ATM cellular potency (pATM Ser1981 in irradiated HT29 cells)
T1 construct: endogenous in cells; host or cells: HT29 cells (ECACC #85061109)
T1 sequence (Q13315 whole entry): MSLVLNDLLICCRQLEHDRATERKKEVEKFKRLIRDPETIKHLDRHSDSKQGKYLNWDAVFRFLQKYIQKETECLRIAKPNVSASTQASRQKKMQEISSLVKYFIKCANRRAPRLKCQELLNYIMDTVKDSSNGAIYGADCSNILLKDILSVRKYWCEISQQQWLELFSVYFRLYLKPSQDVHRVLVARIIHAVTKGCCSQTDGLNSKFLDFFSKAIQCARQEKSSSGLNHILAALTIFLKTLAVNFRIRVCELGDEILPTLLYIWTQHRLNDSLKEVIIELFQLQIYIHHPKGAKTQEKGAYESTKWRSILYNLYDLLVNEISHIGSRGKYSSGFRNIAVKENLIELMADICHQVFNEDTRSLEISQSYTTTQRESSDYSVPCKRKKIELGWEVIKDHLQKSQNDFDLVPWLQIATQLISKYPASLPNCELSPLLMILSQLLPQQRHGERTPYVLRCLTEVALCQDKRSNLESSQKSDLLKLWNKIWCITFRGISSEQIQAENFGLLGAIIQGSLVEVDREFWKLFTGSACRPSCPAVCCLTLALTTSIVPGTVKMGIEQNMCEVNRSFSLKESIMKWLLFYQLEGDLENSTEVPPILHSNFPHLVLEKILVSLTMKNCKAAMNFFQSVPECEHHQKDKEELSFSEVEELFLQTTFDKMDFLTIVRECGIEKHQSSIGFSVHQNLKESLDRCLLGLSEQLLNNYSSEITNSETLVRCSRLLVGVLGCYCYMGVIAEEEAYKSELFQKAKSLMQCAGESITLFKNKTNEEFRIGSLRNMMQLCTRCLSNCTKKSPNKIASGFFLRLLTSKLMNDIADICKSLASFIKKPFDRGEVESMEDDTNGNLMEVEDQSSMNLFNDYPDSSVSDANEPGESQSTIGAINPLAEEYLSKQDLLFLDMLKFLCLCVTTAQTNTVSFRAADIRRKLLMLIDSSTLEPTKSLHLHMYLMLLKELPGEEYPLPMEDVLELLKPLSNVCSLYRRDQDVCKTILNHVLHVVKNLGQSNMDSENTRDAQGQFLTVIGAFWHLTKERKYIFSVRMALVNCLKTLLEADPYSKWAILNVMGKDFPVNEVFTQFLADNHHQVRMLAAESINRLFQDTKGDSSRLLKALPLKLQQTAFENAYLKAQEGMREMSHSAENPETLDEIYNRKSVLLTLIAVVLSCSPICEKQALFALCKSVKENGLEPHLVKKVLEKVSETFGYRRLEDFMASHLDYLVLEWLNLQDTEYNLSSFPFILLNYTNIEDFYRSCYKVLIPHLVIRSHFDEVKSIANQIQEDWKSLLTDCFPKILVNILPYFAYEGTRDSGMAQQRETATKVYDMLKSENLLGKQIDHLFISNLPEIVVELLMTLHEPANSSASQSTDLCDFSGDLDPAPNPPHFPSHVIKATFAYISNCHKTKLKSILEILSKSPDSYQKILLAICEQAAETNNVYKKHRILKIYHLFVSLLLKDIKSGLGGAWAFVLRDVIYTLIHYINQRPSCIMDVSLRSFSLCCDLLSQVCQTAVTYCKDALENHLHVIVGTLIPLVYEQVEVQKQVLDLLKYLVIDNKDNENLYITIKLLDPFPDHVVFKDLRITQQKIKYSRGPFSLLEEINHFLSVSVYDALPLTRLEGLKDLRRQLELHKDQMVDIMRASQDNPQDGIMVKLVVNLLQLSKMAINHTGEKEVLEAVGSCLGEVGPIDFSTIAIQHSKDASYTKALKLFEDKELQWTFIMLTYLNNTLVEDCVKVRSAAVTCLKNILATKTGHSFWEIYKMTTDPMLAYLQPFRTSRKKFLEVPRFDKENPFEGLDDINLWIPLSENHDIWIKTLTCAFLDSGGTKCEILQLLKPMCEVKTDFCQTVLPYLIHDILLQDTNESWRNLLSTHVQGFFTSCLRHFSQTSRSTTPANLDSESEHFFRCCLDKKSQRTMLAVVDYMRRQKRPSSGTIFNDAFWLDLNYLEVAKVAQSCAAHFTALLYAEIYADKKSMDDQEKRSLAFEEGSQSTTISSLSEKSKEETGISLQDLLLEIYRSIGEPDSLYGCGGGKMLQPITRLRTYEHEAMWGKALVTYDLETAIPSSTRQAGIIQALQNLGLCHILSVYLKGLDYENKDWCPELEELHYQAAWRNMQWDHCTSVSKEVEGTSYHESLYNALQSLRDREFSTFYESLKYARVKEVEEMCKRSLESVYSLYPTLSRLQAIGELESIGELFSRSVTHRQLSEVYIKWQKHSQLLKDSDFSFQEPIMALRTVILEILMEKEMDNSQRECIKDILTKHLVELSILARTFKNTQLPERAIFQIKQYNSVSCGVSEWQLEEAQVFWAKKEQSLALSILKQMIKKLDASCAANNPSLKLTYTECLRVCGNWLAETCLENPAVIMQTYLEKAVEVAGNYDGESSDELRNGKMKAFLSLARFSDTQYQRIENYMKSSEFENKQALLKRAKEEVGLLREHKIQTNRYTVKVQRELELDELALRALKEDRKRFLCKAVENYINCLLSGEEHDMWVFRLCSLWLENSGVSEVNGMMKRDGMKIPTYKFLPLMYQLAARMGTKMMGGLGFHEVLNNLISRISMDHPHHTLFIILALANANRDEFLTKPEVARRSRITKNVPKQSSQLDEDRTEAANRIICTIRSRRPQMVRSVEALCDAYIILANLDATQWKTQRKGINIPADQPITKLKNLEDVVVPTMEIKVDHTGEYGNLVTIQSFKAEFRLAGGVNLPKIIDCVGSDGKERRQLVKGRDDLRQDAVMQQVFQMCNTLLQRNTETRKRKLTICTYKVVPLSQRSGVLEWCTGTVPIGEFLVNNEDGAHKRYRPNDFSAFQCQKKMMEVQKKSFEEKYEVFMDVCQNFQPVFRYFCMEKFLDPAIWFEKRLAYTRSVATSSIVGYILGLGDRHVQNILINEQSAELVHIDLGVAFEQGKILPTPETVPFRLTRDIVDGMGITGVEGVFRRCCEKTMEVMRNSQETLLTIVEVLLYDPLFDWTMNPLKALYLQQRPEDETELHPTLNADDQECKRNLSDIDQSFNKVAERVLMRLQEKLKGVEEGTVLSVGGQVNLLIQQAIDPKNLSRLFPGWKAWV
Protocol: Most ATM molecules in the cell are rapidly phosphorylated on this site after doses of radiation as low as 0.5 Gy, and binding of a phosphospecific antibody is detectable after the introduction of only a few DNA double-strand breaks in the cell.
The rationale of the p ATM assay is to identify inhibitors of ATM in cells. HT29 cells are incubated with test compounds for 1 hr prior to X-ray-irradiation. 1 h later the cells are fixed and stained for p ATM (Ser1981). The fluorescence is read on the arrayscan imaging platform.
The following morning compounds of Formula (I) in 100% DMSO were added to assay plates by acoustic dispensing. After 1 h incubation at 37° C. and 5% CO2, plates (up to 6 at a time) were irradiated using the X-RAD 320 instrument (PXi) with equivalent to ˜600cGy. Plates were returned to the incubator for a further 1 h. […] Then 20 μl of 0.1% Triton X100 in PBS was added and incubated for 20 minutes at r.t., to permeabalise cells. Then the plates were washed once with […] PBS, using a Biotek EL405 plate washer.
After 1 h incubation at r.t., the plates were washed three times with 50 μl/well PBS, using a Biotek EL405 plate washer, and plates were sealed and kept in PBS at 4° C. until read. Plates were read using an ArrayScan VTI instrument, using an XF53 filter with 10× objective.

ATR kinase = biological target: T2, ATR kinase (Homo sapiens, UniProt Q13535); experiment: Assay b): ATR cellular potency (pChk1 Ser345 in HT29 cells after 4NQO)
T2 construct: endogenous in cells; host or cells: HT29 cells (ECACC #85061109)
Protocol: ATR is a PI 3-kinase-related kinase which phosphorylates multiple substrates on serine or threonine residues in response to DNA damage during or replication blocks. Chk1, a downstream protein kinase of ATR, plays a key role in DNA damage checkpoint control. Activation of Chk1 involves phosphorylation of Ser317 and Ser345 (the latter regarded as the preferential target for phosphorylation/activation by ATR).
The following morning compound of Formula (I) in 100% DMSO were added to assay plates by acoustic dispensing. After 1 h incubation at 37° C. and 5% CO2, 40 nl of 3 mM 4NQO in 100% DMSO was added to all wells by acoustic dispensing, except minimum control wells which were left untreated with 4NQO to generate a null response control. Plates were returned to the incubator for a further 1 h. […] Then 20 μl of 0.1% Triton X100 in PBS was added and incubated for 10 minutes at r.t., to permeabalise cells. Then the plates were washed once with 50 μl/well PBS, using a Biotek EL405 plate washer.
After 2 h incubation at r.t., the plates were washed three times with 50 μl/well PBS, using a Biotek EL405 plate washer, and plates were then sealed with black plate seals until read. Plates were read using an ArrayScan VTI instrument, using an XF53 filter with 10× objective.

mTOR = biological target: T3, mTOR (Homo sapiens, UniProt P42345); experiment: Assay d): mTOR cellular potency (phospho-AKT Ser473 in MDA-MB-468 cells)
T3 construct: phosphorylation of the Akt protein at Ser473 (AKT lies downstream of PI3Kα in the signal transduction pathway) in the MDA-MB-468 cells; endogenous in cells; host or cells: MDA-MB-468 cells (ATCC HTB 132)
Protocol: This assay was used to measure mTOR inhibition in cells. The aim of the phospho-AKT cell based mechanism of action assay using the Acumen Explorer is to identify inhibitors of either PI3Kα or mTOR-Rictor (Rapamycin insensitive companion of mTOR). This is measured by any decrease in the phosphorylation of the Akt protein at Ser473 (AKT lies downstream of PI3Kα in the signal transduction pathway) in the MDA-MB-468 cells following treatment with compound.
MDA-MB-468 cells (human breast adenocarcinoma #ATCC HTB 132) were seeded at 1500 cells/well in 40 μl of DMEM containing 10% FBS and 1% glutamine into Greiner 384 well black flat-bottomed plates. Cell plates were incubated for 18 h in a 37° C. incubator before dosing with compounds of Formula (I) in 100% DMSO using acoustic dispensing. Compounds were dosed in a 12 point concentration range into a randomised plate map. Control wells were generated either by dosing of 100% DMSO (max signal) or addition of a reference compound (a PI3K-βinhibitor) that completely eliminated the pAKT signal (min control). Plates were incubated at 37° C. for 2 h; cells were then fixed by the addition of 10 μl of a 3.7% formaldehyde solution. After 30 minutes the plates were washed with PBS using a Tecan PW384 plate washer. Wells were blocked and cells permeabilised with the addition of 40 μl of PBS containing 0.5% Tween20 and 1% Marvel™ (dried milk powder) and incubated for 60 minutes at r.t. The plates were washed with PBS containing 0.5% (v/v) Tween20 and 20 μl rabbit anti-phospho AKT Ser473 (Cell Signalling Technologies, #3787) in same PBS-Tween+1% Marvel™ was added and incubated overnight at 4° C.
Plates were washed 3 times with PBS+0.05% Tween 20 using a Tecan PW384. 20 μl of secondary antibody Alexa Fluor 488 anti-Rabbit (Molecular Probes, #A11008) diluted in PBS+0.05% Tween20 containing 1% Marvel™ was added to each well and incubated for 1 h at r.t. Plates were washed three times as before then 20 μl PBS added to each well and plates sealed with a black plate sealer.
The plates were read on an Acumen plate reader as soon as possible, measuring green fluorescence after excitation with 488 nm laser. Using this system IC50 values were generated and quality of plates was determined by control wells. Reference compounds were run each time to monitor assay performance.

[1] = HT29 cells, X-ray irradiation, pATM Ser1981; Table 2; read-out: Assay a) ATM Cell IC50
[2] = HT29 cells, 4NQO, pChk1 Ser345; Table 2; read-out: Assay b) ATR Cell IC50
[3] = MDA-MB-468 cells, phospho-AKT Ser473, 2 h; Table 2; read-out: Assay d) mTOR Cell IC50
[4] = HT29 cells, X-ray irradiation, pATM Ser1981; Table 3 comparative data; read-out: Assay a) ATM Cell IC50
[5] = HT29 cells, 4NQO, pChk1 Ser345; Table 3 comparative data; read-out: Assay b) ATR Cell IC50
[6] = MDA-MB-468 cells, phospho-AKT Ser473, 2 h; Table 3 comparative data; read-out: Assay d) mTOR Cell IC50

Compound	IC50 (ATM kinase; [1]) [nM]	IC50 (ATR kinase; [2]) [µM]	IC50 (mTOR; [3]) [nM]	IC50 (ATM kinase; [4]) [nM]	IC50 (ATR kinase; [5]) [µM]	IC50 (mTOR; [6]) [nM]
CO[C@H]1CC[C@H](n2c(=O)n(C)c3cnc4ccc(-c5ccc(OCCCN6CCCC6)cc5)cc4c32)C1 (single isomer, unassigned) [Example 19, 1-[trans-3-methoxycyclopentyl]-3-methyl-8-[4-(3-pyrrolidin-1-ylpropoxy)phenyl]imidazo[4,5-c]quinolin-2-one]	0.29	18	634	–	–	–
CO[C@@H]1CC[C@@H](n2c(=O)n(C)c3cnc4ccc(-c5ccc(OCCCN6CCCC6)cc5)cc4c32)C1 (single isomer, unassigned) [Example 20, 1-[trans-3-methoxycyclopentyl]-3-methyl-8-[4-(3-pyrrolidin-1-ylpropoxy)phenyl]imidazo[4,5-c]quinolin-2-one]	0.452	21.3	5500	–	–	–
COC(=O)N1CCC(n2c(=O)n(C)c3cnc4ccc(-c5ccc(OC)nc5)cc4c32)CC1 [CN102372711A Compound 4, reference compound]	–	–	–	11.2	0.0686	72.9
Cn1c(=O)n(C2CCOCC2)c2c3cc(-c4cnn(CCCO)c4)ccc3ncc21 [CN102399218A Compound 60, reference compound]	–	–	–	1760	> 0.0771	2310
CC(C)n1c(=O)n(C)c2cnc3cc(F)c(-c4ccc(OCCCN5CCC5)cc4)cc3c21 [Example 4, 8-[4-[3-(azetidin-1-yl)propoxy]phenyl]-7-fluoro-1-isopropyl-3-methyl-imidazo[4,5-c]quinolin-2-one]	6.64	> 30	9120	–	–	–
CO[C@H]1CC[C@H](n2c(=O)n(C)c3cnc4ccc(-c5ccc(OCCCN(C)C)cc5)cc4c32)C1 [Example 6, 8-[4-[3-(Dimethylamino)propoxy]phenyl]-1-[(1S,3S)-3-methoxycyclopentyl]-3-methyl-imidazo[4,5-c]quinolin-2-one]	–	–	781	–	–	–
CO[C@H]1C[C@@H](n2c(=O)n(C)c3cnc4ccc(-c5ccc(OCCCN(C)C)cc5)cc4c32)C1 [Example 11, 8-[4-[3-(dimethylamino)propoxy]phenyl]-1-(cis-3-methoxycyclobutyl)-3-methyl-imidazo[4,5-c]quinolin-2-one]	0.647	> 30	6360	–	–	–
Cn1c(=O)n([C@H]2CCCOC2)c2c3cc(-c4ccc(OCCCN5CCCC5)cc4)ccc3ncc21 [Example 15, 3-methyl-8-[4-(3-pyrrolidin-1-ylpropoxy)phenyl]-1-[(3S)-tetrahydropyran-3-yl]imidazo[4,5-c]quinolin-2-one]	0.911	21.6	2580	–	–	–
Cn1c(=O)n(C2CCOCC2)c2c3cc(-c4ccc(OCCCN5CCCCC5)cc4)ccc3ncc21 [Example 18, 3-methyl-8-[4-[3-(1-piperidyl)propoxy]phenyl]-1-tetrahydropyran-4-yl-imidazo[4,5-c]quinolin-2-one]	–	> 17.8	2650	–	–	–

Continued, in another order:

IC50 (ATM kinase; [1]) [nM]	IC50 (ATR kinase; [2]) [µM]	IC50 (mTOR; [3]) [nM]	Compound	IC50 (ATM kinase; [4]) [nM]	IC50 (ATR kinase; [5]) [µM]	IC50 (mTOR; [6]) [nM]
2.3	28	1230	CO[C@@H]1CCC[C@H](n2c(=O)n(C)c3cnc4ccc(-c5ccc(OCCCN(C)C)cc5)cc4c32)C1 (relative stereo) [Example 33, 8-[4-[3-(dimethylamino)propoxy]phenyl]-1-[cis-3-methoxycyclohexyl]-3-methyl-imidazo[4,5-c]quinolin-2-one]	–	–	–
–	–	899	CO[C@@H]1CCC[C@H](n2c(=O)n(C)c3cnc4ccc(-c5ccc(OCCCN6CCCC6)cc5)cc4c32)C1 (relative stereo) [Example 39, 1-[cis-3-methoxycyclohexyl]-3-methyl-8-[4-(3-pyrrolidin-1-ylpropoxy)phenyl]imidazo[4,5-c]quinolin-2-one]	–	–	–
1.42	> 30	5680	CO[C@H]1CC[C@H](n2c(=O)n(C)c3cnc4cc(F)c(-c5ccc(OCCCN6CCC6)cc5)cc4c32)C1 (single isomer, unassigned) [Example 23, 8-[4-[3-(azetidin-1-yl)propoxy]phenyl]-7-fluoro-1-[trans-3-methoxycyclopentyl]-3-methyl-imidazo[4,5-c]quinolin-2-one]	–	–	–
0.917	> 24.6	5910	CO[C@@H]1CC[C@@H](n2c(=O)n(C)c3cnc4cc(F)c(-c5ccc(OCCCN6CCC6)cc5)cc4c32)C1 (single isomer, unassigned) [Example 24, 8-[4-[3-(azetidin-1-yl)propoxy]phenyl]-7-fluoro-1-[trans-3-methoxycyclopentyl]-3-methyl-imidazo[4,5-c]quinolin-2-one]	–	–	–
1.62	15.5	1700	CO[C@H]1CCC[C@H](n2c(=O)n(C)c3cnc4ccc(-c5ccc(OCCCN6CCCC6)cc5)cc4c32)C1 (single isomer, unassigned) [Example 30, 1-[trans-3-methoxycyclohexyl]-3-methyl-8-[4-(3-pyrrolidin-1-ylpropoxy)phenyl]imidazo[4,5-c]quinolin-2-one]	–	–	–
–	–	4660	CO[C@@H]1CC[C@H](n2c(=O)n(C)c3cnc4ccc(-c5ccc(OCCCN(C)C)cc5)cc4c32)C1 (single isomer, unassigned) [Example 34, 8-[4-[3-(dimethylamino)propoxy]phenyl]-1-[cis-3-methoxycyclopentyl]-3-methyl-imidazo[4,5-c]quinolin-2-one]	–	–	–
2.95	> 30	4110	CO[C@@H]1CC[C@H](n2c(=O)n(C)c3cnc4cc(F)c(-c5ccc(OCCCN(C)C)cc5)cc4c32)C1 (single isomer, unassigned) [Example 37, 8-[4-[3-(dimethylamino)propoxy]phenyl]-7-fluoro-1-[cis-3-methoxycyclopentyl]-3-methyl-imidazo[4,5-c]quinolin-2-one]	–	–	–
0.533	> 30	5070	CO[C@H]1C[C@H](n2c(=O)n(C)c3cnc4ccc(-c5ccc(OCCCN(C)C)cc5)cc4c32)C1 [Example 21, 8-[4-[3-(dimethylamino)propoxy]phenyl]-1-(trans-3-methoxycyclobutyl)-3-methyl-imidazo[4,5-c]quinolin-2-one]	–	–	–
